Test results published in ChEMBL document CHEMBL1149943, “2-aminoalchohol immunosuppressants: Structure-activity relationships” (Bioorg Med Chem Lett, 1996).

Species: Mus musculus
Experiment: Compound was tested for its effect on mouse allogenic mixed lymphocyte reaction(MLR).
Type: functional, organism-based

Row | Compound | IC50 [nM]
1 | CCCCCCCCCCCCCCC(N)CO (racemic) | 98.3
2 | CCCCCCCCCCCCCCCCCC[C@H](N)CO | 1390
3 | CCCCCCCCCCCCCCCCCCC(N)CO (racemic) | 867
4 | CCCCCCCCCCCCCC[C@H](N)CO | 137
5 | CCCCCCCCCCCCCC[C@@H](N)CO | 68.8

The remaining compounds from weak to strong by IC50, led by results:

Row | IC50 [nM] | Compound
6 | 533 | CCCCCCCCCCCCCCCCCC[C@@H](N)CO
7 | 427 | CCCCCCCCc1ccc(CC[C@H](N)CO)cc1
8 | 211 | CCCCCCCCc1ccc(CCC(N)CO)cc1 (stereo not given)
9 | 108 | CCCCCCCCc1ccc(CC[C@@H](N)CO)cc1
10 | 67.4 | CCCCCCCCc1ccc(CCC(N)(CO)CO)cc1 [FINGOLIMOD]
